{"source": "patent US7792665B2", "about": "“Method for designing a compound based on the three dimensional structure of phosphoinositide dependent protein kinase 1 (PDK1)” (Medical Research Council, priority 2002, dated 2010)", "key": {"PDK1[K76A] [1]": {"target": "T1, PDK1[K76A] (Homo sapiens, UniProt O15530, K76A)", "T1 construct": "made in house; host or cells: human embryonic kidney 293 cells (pEBG2T vector)", "T1 sequence (O15530 1-556 K76A)": "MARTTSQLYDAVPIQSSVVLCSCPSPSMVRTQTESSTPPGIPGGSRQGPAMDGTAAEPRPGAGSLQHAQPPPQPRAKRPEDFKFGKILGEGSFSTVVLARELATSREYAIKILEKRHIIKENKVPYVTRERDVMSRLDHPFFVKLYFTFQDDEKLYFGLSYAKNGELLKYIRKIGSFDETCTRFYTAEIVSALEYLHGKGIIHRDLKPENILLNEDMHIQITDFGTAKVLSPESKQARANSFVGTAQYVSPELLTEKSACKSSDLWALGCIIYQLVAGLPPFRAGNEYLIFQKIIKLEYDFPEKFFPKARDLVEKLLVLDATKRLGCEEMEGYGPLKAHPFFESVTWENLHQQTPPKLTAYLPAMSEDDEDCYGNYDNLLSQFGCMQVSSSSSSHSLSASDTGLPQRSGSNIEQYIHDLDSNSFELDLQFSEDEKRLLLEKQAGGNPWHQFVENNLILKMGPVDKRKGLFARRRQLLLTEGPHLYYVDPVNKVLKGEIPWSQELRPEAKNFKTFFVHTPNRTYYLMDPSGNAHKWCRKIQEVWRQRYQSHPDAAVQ", "assay": "PDK1 catalytic activity towards T308tide, activation by peptides, PDK1[K76A]", "type": "biochemical", "settings": "T308tide substrate", "protocol": "C. Activation of the indicated forms of PDK1 by 56K-pHM and S6K-HM. PDK1 activity was measured using the peptide substrate (T308tide) in the presence of the indicated concentrations of 56K-pHM (closed circles) and S6K-HM (open circles) as described in the methods. Assays were performed in triplicate and similar results obtained in 2 separate experiments. The results are the average—SD for a single experiment.\nThe ability of wild type and mutant PDK1 to phosphorylate the synthetic peptide T308tide ([…] ([Biondi et al., 2000]) (SEQ ID NO:108) was carried out in 30 μl assays containing 100 ng of wild type or mutant PDK1, 50 mM Tris/HCl pH 7.5, 0.1% 13-mercaptoethanol, 10 mM MgCl2, 100 μM [32γ P]ATP (200 cpm/pmol), 0.5 μM microcystin-LR, 1 mM T308tide in the presence or absence of the indicated concentrations of the 56K-pHM peptide ([…](P)YVAPSV) (SEQ ID NO:104) or 56K-HM. peptide ([…]) (SEQ ID NO:105). After incubation for 10 min at 30° C., 25 μl of the resultant mixture was spotted into P81 phosphocellulose paper (2×2 cm) and the papers washed and analysed as described previously for assays of MAP kinase. Control assays were carried out in parallel in which either PDK1, or peptide substrate were omitted; these values were always less than 5% of the activity measured in the presence of these reagents. […]"}, "PDK1[K76A] [2]": {"target": "T1, PDK1[K76A]", "assay": "Surface plasmon resonance (BiaCore) binding, PDK1[K76A]", "settings": "relative to wild type PDK1", "protocol": "(§1) Binding and activation of wild type and mutant forms of PDK1 to a phosphopeptide derived from the hydrophobic motif of S6K1. The binding of the wild type (wt) PDK1 and indicated mutants to a phosphopeptide comprising the hydrophobic motif of S6K1 (S6K-pHM: […]*YVAPSV, where T* indicates phospho-threonine, SEQ ID NO:104) was analysed by surface plasmon resonance as described in the Materials and Methods.\n(§2) A. The sensor chip SA was coated with 12RUs of the biotinylated S6K-pHM peptide and the binding was analysed following injection of 270 nM wild type PDK1, PDK1 [T148A] and PDK1 [K76A]. […] (data not shown).\nB. As in A. except that binding was analysed over a range of PDK1 concentrations (2-2150 nM). The response level at the steady state binding is plotted versus the log of the PDK1 concentration. The estimated Kd was obtained by fitting the data to a sigmoid curve using Kaleidagraph software.\nBinding was analysed in a BiaCore 3000 system (BiaCore AB, Stevenage, UK). Biotinylated S6K-pHM (Biotin-C12-[…](P)YVAPSV) (SEQ ID NO:104) or the non-phosphorylated form of this peptide S6K-HM was bound to an streptavidin-coated Sensor chip (SA) (12 response units, RU). […] Steady state binding was determined at each concentration. Dissociation of PDK1 from the phospho-peptide was monitored over a 1 min period. […]"}, "PDK1[Q150A]": {"target": "T2, PDK1[Q150A] (Homo sapiens, UniProt O15530, Q150A)", "T2 sequence (O15530 1-556 Q150A)": "T1 sequence (O15530 1-556 K76A) with A76K, Q150A", "assay": "Surface plasmon resonance (BiaCore) binding, PDK1[Q150A]", "design": "made in house; host or cells: human embryonic kidney 293 cells (pEBG2T vector)", "protocol": "as §1, §2\nBinding was analysed in a BiaCore 3000 system (BiaCore AB, Stevenage, UK). Biotinylated S6K-pHM (Biotin-C12-[…](P)YVAPSV) (SEQ ID NO:104) or the non-phosphorylated form of this peptide S6K-HM was bound to an streptavidin-coated Sensor chip (SA) (12 response units, RU). 30 μl of wild type or the indicated mutant GST-PDK1 were injected at a flow rate of 30 μl/min, in buffer HBS-P (10 mM HEPES pH 7.4, 0.15M NaCl, 0.005% (by vol) polysorbate-20) supplemented with 1 mM DTT. Specific interactions between 56K-pHM and PDK1 proteins were obtained between the concentration range of 2-2150 nM PDK1. Steady state binding was determined at each concentration. Dissociation of PDK1 from the phospho-peptide was monitored over a 1 min period. […]"}}, "note": "Residue numbers refer to the chain shown, from its start. Entries after “also recorded” stand apart in the source; their conditions may differ. Where a SMILES comes first, the peptide text is derived from it. [ ]: non-standard residue; d: D form. pT = C[C@@H](OP(=O)(O)O)[C@H](N)C(=O)O", "data": [{"smiles": "CC(C)C[C@H](NC(=O)[C@H](Cc1ccccc1)NC(=O)[C@@H](NC(=O)[C@H](CCC(N)=O)NC(=O)[C@H](CC(N)=O)NC(=O)[C@H](C)NC(=O)[C@H](CO)NC(=O)[C@H](CCC(=O)O)NC(=O)[C@@H](N)CO)C(C)C)C(=O)NCC(=O)N[C@@H](Cc1ccccc1)C(=O)N[C@H](C(=O)N[C@@H](Cc1ccc(O)cc1)C(=O)N[C@H](C(=O)N[C@@H](C)C(=O)N1CCC[C@H]1C(=O)N[C@@H](CO)C(=O)N[C@H](C(=O)O)C(C)C)C(C)C)[C@@H](C)OP(=O)(O)O", "note": "[S6K-pHM] (H-SESANQVFLGF[pT]YVAPSV-OH; N-terminus and C-terminus assumed)", "values": [{"measurement": "higher concentration required to half maximally activate PDK1[K76A] than wild type", "setting": "PDK1[K76A] [1]", "result": "approximately 3 fold"}, {"measurement": "lower affinity of PDK1[K76A] than wild type PDK1", "setting": "PDK1[K76A] [2]", "result": 3, "unit": "fold"}, {"measurement": "binding of PDK1[Q150A] to peptide", "setting": "PDK1[Q150A]", "result": "No detectable binding; also recorded: did not detectably interact"}]}]}
